Test results: paper PMC7003794, “Chemical Proteomics and Phenotypic Profiling Identifies the Aryl Hydrocarbon Receptor as a Molecular Target of the Utrophin Modulator Ezutromid” (Angewandte Chemie (International Ed. in English), 2020)

Target: T1, aryl hydrocarbon receptor (AhR) (Mus musculus, UniProt P30561)
T1 construct: purified mouse AhR:ARNT complex; with ARNT
Experiment: fluorescence quenching assay (intrinsic ligand fluorescence) with purified AhR:ARNT
Format: binding

T1 sequence (P30561 10-848): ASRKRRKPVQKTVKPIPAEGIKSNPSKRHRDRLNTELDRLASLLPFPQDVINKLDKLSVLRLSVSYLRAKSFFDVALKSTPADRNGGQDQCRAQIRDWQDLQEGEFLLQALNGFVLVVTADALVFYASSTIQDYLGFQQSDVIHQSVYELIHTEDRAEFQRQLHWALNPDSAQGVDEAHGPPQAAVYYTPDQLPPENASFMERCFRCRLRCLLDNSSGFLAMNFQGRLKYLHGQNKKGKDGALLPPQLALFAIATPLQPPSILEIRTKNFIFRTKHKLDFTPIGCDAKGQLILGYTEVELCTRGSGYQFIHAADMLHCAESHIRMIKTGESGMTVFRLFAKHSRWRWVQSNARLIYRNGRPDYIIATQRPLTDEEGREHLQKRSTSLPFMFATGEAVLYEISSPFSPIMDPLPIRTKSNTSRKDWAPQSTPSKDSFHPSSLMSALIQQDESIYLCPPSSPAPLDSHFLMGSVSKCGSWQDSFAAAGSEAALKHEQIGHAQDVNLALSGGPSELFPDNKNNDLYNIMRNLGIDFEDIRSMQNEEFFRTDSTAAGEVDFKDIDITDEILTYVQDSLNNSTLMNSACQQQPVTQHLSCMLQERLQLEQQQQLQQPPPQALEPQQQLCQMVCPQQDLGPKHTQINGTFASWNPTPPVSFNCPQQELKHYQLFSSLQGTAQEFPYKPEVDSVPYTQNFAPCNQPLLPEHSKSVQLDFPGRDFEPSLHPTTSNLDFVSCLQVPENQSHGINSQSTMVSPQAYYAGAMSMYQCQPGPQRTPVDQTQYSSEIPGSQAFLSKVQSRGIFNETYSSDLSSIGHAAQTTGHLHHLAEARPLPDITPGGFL
T1 sequence (P53762 2-791 partner): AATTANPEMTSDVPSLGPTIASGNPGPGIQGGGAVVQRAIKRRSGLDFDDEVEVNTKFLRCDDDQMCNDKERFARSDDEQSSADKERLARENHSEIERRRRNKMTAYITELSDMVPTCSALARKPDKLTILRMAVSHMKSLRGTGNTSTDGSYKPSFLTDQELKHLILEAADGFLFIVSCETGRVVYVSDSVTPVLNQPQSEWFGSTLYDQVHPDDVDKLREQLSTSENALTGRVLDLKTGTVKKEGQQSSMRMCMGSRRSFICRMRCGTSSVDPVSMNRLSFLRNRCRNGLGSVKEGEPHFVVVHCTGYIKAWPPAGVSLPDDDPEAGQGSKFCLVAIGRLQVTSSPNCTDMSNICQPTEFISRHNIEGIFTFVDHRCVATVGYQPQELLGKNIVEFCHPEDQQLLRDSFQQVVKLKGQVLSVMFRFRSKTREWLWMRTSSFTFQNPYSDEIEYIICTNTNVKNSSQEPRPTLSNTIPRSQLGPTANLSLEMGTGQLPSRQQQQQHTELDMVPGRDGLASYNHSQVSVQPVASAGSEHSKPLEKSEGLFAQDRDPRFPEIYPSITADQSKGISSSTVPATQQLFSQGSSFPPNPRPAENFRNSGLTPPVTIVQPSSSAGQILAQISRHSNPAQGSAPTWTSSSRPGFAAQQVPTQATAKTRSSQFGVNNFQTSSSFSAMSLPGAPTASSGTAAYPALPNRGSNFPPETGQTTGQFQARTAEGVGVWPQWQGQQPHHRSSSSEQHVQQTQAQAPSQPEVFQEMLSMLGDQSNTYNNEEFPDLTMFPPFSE

Kd: 50.1 ± 22.1 nM
Compound: CCS(=O)(=O)c1ccc2oc(-c3ccc4ccccc4c3)nc2c1 [compound 1, ezutromid]
